Publication PMC7756392, “Syntheses of Thailandepsin B Pseudo‐Natural Products: Access to New Highly Potent HDAC Inhibitors via Late‐Stage Modification” (Chemistry (Weinheim an Der Bergstrasse, Germany), 2020)

How the values were obtained:
[1] = target: T1, human recombinant HDAC1 (Homo sapiens, UniProt Q13547); assay: ZMAL trypsin assay, HDAC1; type: biochemical; conditions: ZMAL trypsin assay
T1 construct: purchased BPS Bioscience 50051
Experimental: (§1) [28] Assays for HDAC1/6 were prepared according to: B. Heltweg , J. Trapp , M. Jung , Methods 2005, 36, 332–337; assays for HDAC8 were prepared according to: J. Senger , J. Melesina , M. Marek , C. Romier , I. Oehme , O. Witt , W. Sippl , M. Jung , J. Med. Chem. 2016, 59, 1545–1555. […]
(§2) hHDAC1/6: Activity assays were performed in OptiPlateTM-96 F black microplates (PerkinElmer). Commercial available enzymes (human recombinant HDAC1; BPS Bioscience, catalog no. 50051 and human recombinant HDAC6; BPS Bioscience, catalog no. 50006) were used. Total assay volume of 60 µL contains 42 µl of assay buffer (50 mM Tris -HCl, pH 8.0, 137 mM NaCl, 2.7 mM KCl, 1 mM MgCl2, 0.2 mM TCEP and 1 mg/mL bovine serum albumin), 10 µL of enzyme solution in assay buffer, 3 µL of increasing concentrations of inhibitors in DMSO and 5 μL of the fluorogenic substrate ZMAL (Z -(Ac)Lys-AMC) (126 μM). After incubation (90 min, 37 °C) 60 µL of stop solution, containing 5 μL Trichostatin A (TSA) (33 μM) and 10 μL trypsin (6 mg/mL) in trypsin buffer (Tris-HCl 50 mM, pH 8.0, NaCl 100 mM), were added. […]

[2] = target: T2, human recombinant HDAC6 (Homo sapiens, UniProt Q9UBN7); assay: ZMAL trypsin assay, HDAC6; type: biochemical; conditions: for inhibition at 10 µM: ZMAL trypsin assay
T2 construct: purchased BPS Bioscience 50006
T2 sequence (Q9UBN7 1-1215): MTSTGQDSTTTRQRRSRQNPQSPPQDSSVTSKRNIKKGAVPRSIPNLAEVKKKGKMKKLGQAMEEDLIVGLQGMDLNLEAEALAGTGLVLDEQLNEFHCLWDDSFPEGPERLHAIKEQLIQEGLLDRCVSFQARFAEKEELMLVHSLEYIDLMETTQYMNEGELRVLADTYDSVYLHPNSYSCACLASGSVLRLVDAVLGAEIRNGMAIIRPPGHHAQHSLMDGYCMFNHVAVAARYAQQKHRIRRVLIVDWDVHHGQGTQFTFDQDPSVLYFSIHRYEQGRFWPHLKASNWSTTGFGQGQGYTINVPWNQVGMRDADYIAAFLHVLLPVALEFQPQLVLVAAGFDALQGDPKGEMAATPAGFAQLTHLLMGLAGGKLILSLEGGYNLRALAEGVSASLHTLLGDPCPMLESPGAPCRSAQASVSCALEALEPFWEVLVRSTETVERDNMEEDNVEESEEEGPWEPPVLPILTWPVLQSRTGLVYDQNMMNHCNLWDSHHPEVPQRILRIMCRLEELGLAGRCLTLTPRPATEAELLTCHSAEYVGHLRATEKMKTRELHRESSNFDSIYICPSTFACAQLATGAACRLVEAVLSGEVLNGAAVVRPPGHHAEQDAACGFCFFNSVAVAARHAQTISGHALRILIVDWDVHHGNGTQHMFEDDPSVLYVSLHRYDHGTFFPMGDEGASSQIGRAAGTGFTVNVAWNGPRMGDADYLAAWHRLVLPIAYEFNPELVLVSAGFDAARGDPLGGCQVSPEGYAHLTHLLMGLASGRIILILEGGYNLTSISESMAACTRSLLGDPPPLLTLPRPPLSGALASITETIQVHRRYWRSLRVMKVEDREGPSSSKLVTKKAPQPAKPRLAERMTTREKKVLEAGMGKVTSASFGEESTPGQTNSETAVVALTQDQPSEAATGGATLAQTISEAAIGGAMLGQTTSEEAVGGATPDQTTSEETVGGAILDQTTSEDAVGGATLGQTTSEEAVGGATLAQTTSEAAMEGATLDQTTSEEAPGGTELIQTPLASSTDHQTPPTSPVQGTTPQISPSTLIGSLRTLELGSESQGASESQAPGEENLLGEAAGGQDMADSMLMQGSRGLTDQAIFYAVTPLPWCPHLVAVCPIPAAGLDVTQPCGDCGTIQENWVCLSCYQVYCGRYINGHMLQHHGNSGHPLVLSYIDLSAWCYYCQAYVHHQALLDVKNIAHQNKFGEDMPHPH
Experimental: as §1, §2

[3] = system: HDAC in HeLa cells; assay: Cellular HDAC activity assay, HeLa; type: cell-based; conditions: for IC50: read-out: cellular HDAC inhibition IC50
Experimental: Cellular trypsin-based activity assay:13 1 x 10^4 Hela cells (50 µL) were seeded in sterile dark 96-well microtiter plates (Perkin Elmer) and incubated overnight at 37 °C and 5% CO2 atmosphere. The next day, the medium was aspirated and the cells were incubated with different inhibitor concentrations or DMSO, diluted in 50 µL m edium without supplements and phenol red. After 2 h incubation time, 50 µL of the HDAC substrate MAL (Boc -Lys(Ac)-AMC) were added to a final concentration of 150 µM and the plate was incubated for 2 h at 37°C and 5%
CO2. The reaction was stopped by adding 50 µL of stop solution (50 mM Tris, 137 mM NaCl, 1 mM MgCl2, 2.7 mM KCl, 1 µM TSA, 0.1% Igepal, 1 mg/ml Trypsin). After another 20 min of incubation, the fluorescence signal (λex = 390 nm, λem = 460 nm) was measured on a BMG LABTECH POLARstar OPTIMA plate reader (BMG Labtechnologies, Germany). […]

T1 sequence (Q13547 whole entry): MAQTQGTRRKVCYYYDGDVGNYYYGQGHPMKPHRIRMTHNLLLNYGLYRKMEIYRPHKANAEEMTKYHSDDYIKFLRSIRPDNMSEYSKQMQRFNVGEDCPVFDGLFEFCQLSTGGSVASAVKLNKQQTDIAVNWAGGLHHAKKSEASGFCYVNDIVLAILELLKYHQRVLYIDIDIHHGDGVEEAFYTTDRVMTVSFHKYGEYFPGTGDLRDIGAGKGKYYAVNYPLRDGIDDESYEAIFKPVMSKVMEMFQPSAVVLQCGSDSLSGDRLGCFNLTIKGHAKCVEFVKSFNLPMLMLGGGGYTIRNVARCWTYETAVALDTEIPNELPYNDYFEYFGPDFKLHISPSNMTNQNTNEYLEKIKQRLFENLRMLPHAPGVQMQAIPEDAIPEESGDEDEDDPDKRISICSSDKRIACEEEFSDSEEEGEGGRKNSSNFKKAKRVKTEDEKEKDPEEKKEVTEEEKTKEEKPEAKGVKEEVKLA

| Structure (SMILES) | IC50 [1] [nM] | inhibition at 10 µM [2] [%] | HDAC inhibition in cells at 5 μM (in words) ([3]; 5 μM) | HDAC6 inhibition (in words) [2] | IC50 [3] [nM] |
| --- | --- | --- | --- | --- | --- |
| CCCC[C@H]1NC(=O)C[C@@H](/C=C/CCC(=O)NO)OC(=O)C[C@H](O)[C@@H]([C@@H](C)CC)NC(=O)[C@@H](C)NC1=O [compound 8] | 28 ± 2 | 39 | no HDAC inhibition | – | – |
| CCCC[C@H]1NC(=O)C[C@@H](/C=C/CCSC(C)=O)OC(=O)C[C@H](O[Si](C)(C)C(C)(C)C)[C@@H]([C@@H](C)CC)NC(=O)[C@@H](C)NC1=O [compound 32] | 18700 ± 8900 | < 5 | – | not inhibited | 58600 ± 1300 |
| CCCC[C@H]1NC(=O)C[C@@H](/C=C/CCSC(C)=O)OC(=O)C[C@H](O)[C@@H]([C@@H](C)CC)NC(=O)[C@@H](C)NC1=O [compound 33] | 12.3 ± 1.6 | 30 | – | – | 34 ± 2.2 |
